From US5843755A, “Group of antitumor compounds and method for producing the same” (Ajinomoto Co., Inc., priority 1996, dated 1998)
In brackets after ≈: the same amount, converted by molar mass.

What was measured:
[1] = Stability of the tautomers; format: physicochemical; settings: tautomeric equilibrium in organic solvent such as acetonitrile, chloroform, acetic acid
CHO-K1 = assay: Growth-inhibiting action on various cells (MTT), CHO-K1; format: cell-based; settings: Cricetulus griseus, 72 h, CHO-K1, Chinese hamster ovary fibroblast, 1.5 × 10^4 cells/ml, 3 days, read-out: IC50 (concentration at which cell proliferation is inhibited by 50%)
Experimental: (§1) The proliferation-inhibiting action of FE399 compounds obtained by purification, on various cells was measured under a condition shown below.
(§2) After that, FE399-P1 or FE399-P2 was added thereto at an appropriate concentration, followed by further cultivation for 3 days. However, as for P388 and K562, the FE399 compound group was added immediately after preparation of cell culture liquids. Each of the cultures was added with 10 μl of a solution of MTT (3-(4,5-dimethyl-2-thiazolyl)-2,5-diphenyl-2H-tetrazolium.Br, 5 mg/ml Dulbecco PBS(-)), followed by cultivation at 37° C. for 4 hours in the carbon dioxide gas incubator. After that, each of the cultures was added with 50 μl of 0.01N hydrochloric acid/20% SDS, and then the absorbance was measured at 570 nm by using a microplate reader (reference wavelength: 630 nm).

Colon26 = assay: Growth-inhibiting action on various cells (MTT), Colon26; format: cell-based; settings: Colon 26, 72 h, Colon26, mouse colon cancer, 5 × 10^4 cells/ml, 3 days, read-out: IC50 (concentration at which cell proliferation is inhibited by 50%)
Experimental: as §1, §2

Solubility = format: physicochemical
K562T = assay: Growth-inhibiting action on various cells (MTT), K562T; format: cell-based; settings: 72 h, human leukemia, 4 × 10^4 cells/ml, 3 days, read-out: IC50 (concentration at which cell proliferation is inhibited by 50%)
Experimental: as §1, §2

SW948 = assay: Growth-inhibiting action on various cells (MTT), SW948; format: cell-based; settings: 72 h, SW948, human colon cancer, 5 × 10^4 cells/ml, 3 days, read-out: IC50 (concentration at which cell proliferation is inhibited by 50%)
Experimental: as §1, §2

P388 = assay: Growth-inhibiting action on various cells (MTT), P388; format: cell-based; settings: 72 h, P388, mouse leukemia, 2 × 10^4 cells/ml, 3 days, read-out: IC50 (concentration at which cell proliferation is inhibited by 50%)
Experimental: as §1, §2

[2] = test system: Mouse colon cancer cells (colon-26); assay: Anticancer effect on solid cancer, colon-26 transplanted subcutaneously to CDFI mice; format: in vivo; settings: cisplatin 5 mg/kg on 7th, 11th and 15th day
Experimental: Mouse colon cancer cells (colon-26) subcultured in vivo subcutaneously in a CDFI mouse were excised from the subcutaneous portion of the mouse. The cells were minced and transplanted subcutaneously with a trocar to CDFI mice (female, 4 weeks old) so that the concentration was 10 mg/mouse. The day of the transplantation was designated as 0th day. On 7th day, the tumor size and the body weight were measured, and the mice were classified into groups with n=4. The tumor size was calculated as a tumor weight in accordance with the following arithmetic expression. [formula]
FE399 which was obtained by drying up the acetonitrile solution of FE399-1 isolated by the method described in Example 1 under a reduced precondition was administered to the mice described above in accordance with the following schedule. FE399 was administered intraperitoneally in an administration amount of 0.2 mL/mouse. FE399 was dissolved in dimethyl sulfoxide (DMSO) so that the concentration was 100 mg/ml. The concentration was adjusted with physiological saline containing 5% Tween 80 so that the administration amount was 4 mg/kg or 8 mg/kg. […]
The anticancer effect was evaluated on the basis of the tumor enhancement inhibitory ratio (IR) calculated from the tumor weight. IR was determined in accordance with the following arithmetic expression. […]

Row | SMILES | Stability among the group of the compounds [1] | IC50 (CHO-K1) | IC50 (Colon26) | Solubility (Solubility; in dimethyl sulfoxide, chloroform, ethyl acetate, methanol, and acetonitrile) | Solubility (Solubility; in pyridine and acetic acid) | Solubility (Solubility; in water) | IC50 (K562T) | IC50 (SW948) | IC50 (P388) | IR (tumor enhancement inhibitory ratio) ([2]; 15th day) | IR (tumor enhancement inhibitory ratio) ([2]; 21st day)
1 | CCCC1CCCCCCCC(=O)NC2CSSCC(NC2=O)C(=O)O1 (centres unmarked) [FE399-P1] | relatively stable | 0.3 µg/mL (≈ 0.745 µM) | 0.4 µg/mL (≈ 0.994 µM) | soluble | readily soluble | scarcely soluble | 0.31 µg/mL (≈ 0.77 µM) | 0.15 µg/mL (≈ 0.373 µM) | 0.36 µg/mL (≈ 0.894 µM) | – | –
2 | N.N.[Cl][Pt][Cl] [cisplatin] | – | – | – | – | – | – | – | – | – | 63 | 73
